In patent US20210045385A1, “PYRIDAZINONE-SUBSTITUTED KETOXIMES AS HERBICIDES” (FMC Corporation, priority 2018, published 2021):

Tests used:
Format in all cases: in vivo
[1] = test system: Italian ryegrass (Lolium mutiflorum); test: Test C preemergence, visual plant response rating; details: Test C, 0 is no effect, 100 is complete control
Method in brief: (§1)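 Compounds in a non-phytotoxic solvent with surfactant were applied as a directed soil spray preemergence or to 2–10 cm, one- to two-leaf plants postemergence, in loam–sand soil. After about 10 d in a greenhouse, injury was visually rated against untreated controls on a 0–100 scale (100 = complete control).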

[2] = test system: barnyardgrass (Echinochloa crus-galli); test: Test C preemergence, visual plant response rating; details: Test C, 0 is no effect, 100 is complete control
Method in brief: as §1

[3] = test system: foxtail, giant (giant foxtail, Setaria faberi); test: Test C preemergence, visual plant response rating; details: Test C, 0 is no effect, 100 is complete control
Method in brief: as §1

kochia (Bassia scoparia) [4] = test: Test C preemergence, visual plant response rating; details: Test C, 0 is no effect, 100 is complete control
Method in brief: as §1

[5] = test system: pigweed (Amaranthus retroflexus); test: Test C preemergence, visual plant response rating; details: Test C, 0 is no effect, 100 is complete control
Method in brief: as §1

[6] = test system: ragweed (common ragweed, Ambrosia artemisiifolia); test: Test C preemergence, visual plant response rating; details: Test C, 0 is no effect, 100 is complete control
Method in brief: as §1

[7] = test system: Italian ryegrass (Lolium mutiflorum); test: Test C postemergence, visual plant response rating
Method in brief: as §1

[8] = test system: barnyardgrass (Echinochloa crus-galli); test: Test C postemergence, visual plant response rating
Method in brief: as §1

[9] = test system: blackgrass (Alopecurus myosuroides); test: Test C postemergence, visual plant response rating
Method in brief: as §1

corn (Zea mays) = test: Test C postemergence, visual plant response rating
Method in brief: as §1

[10] = test system: foxtail, giant (giant foxtail, Setaria faberi); test: Test C postemergence, visual plant response rating
Method in brief: as §1

[11] = test system: galium (catchweed bedstraw, Galium aparine); test: Test C postemergence, visual plant response rating
Method in brief: as §1

kochia (Bassia scoparia) [12] = test: Test C postemergence, visual plant response rating
Method in brief: as §1

[13] = test system: pigweed (Amaranthus retroflexus); test: Test C postemergence, visual plant response rating
Method in brief: as §1

[14] = test system: ragweed (common ragweed, Ambrosia artemisiifolia); test: Test C postemergence, visual plant response rating
Method in brief: as §1

[15] = test system: wheat (Triticum aestivum); test: Test C postemergence, visual plant response rating
Method in brief: as §1

[16] = test system: barnyardgrass (Echinochloa crus-galli); test: Test D flooded paddy test, visual plant response rating; details: 250 g ai/ha, scale 0 to 100 (0 no effect, 100 complete control), 13 to 15 d
Method in brief: (§2)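 Plants were grown to the 2-leaf stage, pots flooded to 3 cm above soil, and compound applied directly into the paddy water, with the depth held throughout. After 13 to 15 d in a greenhouse, response was rated visually against untreated controls on a 0–100 scale (0 no effect, 100 complete control).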

[17] = test system: duck salad (Heteranthera limosa); test: as above; details: 250 g ai/ha, scale 0 to 100 (0 no effect, 100 complete control), 13 to 15 d
Method in brief: as §2

rice (Oryza sativa) = test: as above; details: 250 g ai/ha, scale 0 to 100 (0 no effect, 100 complete control), 13 to 15 d
Method in brief: as §2

[18] = test system: sedge umbrella (small-flower umbrella sedge, Cyperus difformis); test: as above; details: 250 g ai/ha, scale 0 to 100 (0 no effect, 100 complete control), 13 to 15 d
Method in brief: as §2

[19] = Test C, postemergence, 125 g ai/ha

Row | SMILES | Ryegrass, Italian plant response rating (0 to 100 scale) ([1]; 31 g ai/ha) | Ryegrass, Italian plant response rating (0 to 100 scale) ([1]; 125 g ai/ha) | Barnyardgrass plant response rating (0 to 100 scale) ([2]; 31 g ai/ha) | Barnyardgrass plant response rating (0 to 100 scale) ([2]; 125 g ai/ha) | Foxtail, Giant plant response rating (0 to 100 scale) ([3]; 31 g ai/ha) | Foxtail, Giant plant response rating (0 to 100 scale) ([3]; 125 g ai/ha) | Kochia plant response rating (0 to 100 scale) (kochia (Bassia scoparia) [4]; 31 g ai/ha) | Kochia plant response rating (0 to 100 scale) (kochia (Bassia scoparia) [4]; 125 g ai/ha) | Pigweed plant response rating (0 to 100 scale) ([5]; 31 g ai/ha) | Pigweed plant response rating (0 to 100 scale) ([5]; 125 g ai/ha) | Ragweed plant response rating (0 to 100 scale) ([6]; 31 g ai/ha) | Ragweed plant response rating (0 to 100 scale) ([6]; 125 g ai/ha) | Ryegrass, Italian plant response rating (0 to 100 scale) ([7]; Postemergence, 31 g ai/ha) | Ryegrass, Italian plant response rating (0 to 100 scale) [7, 19] | Barnyardgrass plant response rating (0 to 100 scale) ([8]; Postemergence, 31 g ai/ha) | Barnyardgrass plant response rating (0 to 100 scale) [8, 19] | Blackgrass plant response rating (0 to 100 scale) ([9]; Postemergence, 31 g ai/ha) | Blackgrass plant response rating (0 to 100 scale) [9, 19] | Corn plant response rating (0 to 100 scale) (corn (Zea mays); Postemergence, 31 g ai/ha) | Corn plant response rating (0 to 100 scale) (corn (Zea mays); [19]) | also measured
1 | CCO/N=C(/c1c(O)c(C)nn(C)c1=O)c1cccc2cc(Cl)ccc12 [Compound 244] | 0 | 20 | 40 | 70 | 90 | 100 | 0 | 0 | 50 | 90 | 10 | 20 | 0 | 10 | 30 | 50 | 40 | 70 | 10 | 30 | Foxtail, Giant plant response rating (0 to 100 scale) ([10]; Postemergence, 31 g ai/ha): 80; Foxtail, Giant plant response rating (0 to 100 scale) [10, 19]: 80; Galium plant response rating (0 to 100 scale) ([11]; Postemergence, 31 g ai/ha): 80; Galium plant response rating (0 to 100 scale) [11, 19]: 90; Kochia plant response rating (0 to 100 scale) (kochia (Bassia scoparia) [12]; Postemergence, 31 g ai/ha): 20; Kochia plant response rating (0 to 100 scale) (kochia (Bassia scoparia) [12]; [19]): 20; Pigweed plant response rating (0 to 100 scale) ([13]; Postemergence, 31 g ai/ha): 80; Pigweed plant response rating (0 to 100 scale) [13, 19]: 90; Ragweed plant response rating (0 to 100 scale) ([14]; Postemergence, 31 g ai/ha): 90; Ragweed plant response rating (0 to 100 scale) [14, 19]: 40; Wheat plant response rating (0 to 100 scale) ([15]; Postemergence, 31 g ai/ha): 0; Wheat plant response rating (0 to 100 scale) [15, 19]: 0; Plant response rating, Barnyardgrass (Flood) [16]: 10; Plant response rating, Ducksalad (Flood) [17]: 50; Plant response rating, Rice (Flood) (rice (Oryza sativa)): 15; Plant response rating, Sedge, Umbrella (Flood) [18]: 45
2 | CCCCON=C(c1cc(Cl)cc(Cl)c1Cl)c1c(O)c(C)nn(C)c1=O [Compound 268] | 20 | 90 | 30 | 70 | 70 | 100 | 0 | 0 | 0 | 0 | 10 | 60 | 60 | 100 | 50 | 60 | 0 | 20 | 0 | 30 | Foxtail, Giant plant response rating (0 to 100 scale) ([10]; Postemergence, 31 g ai/ha): 60; Foxtail, Giant plant response rating (0 to 100 scale) [10, 19]: 90; Galium plant response rating (0 to 100 scale) ([11]; Postemergence, 31 g ai/ha): 20; Galium plant response rating (0 to 100 scale) [11, 19]: 50; Kochia plant response rating (0 to 100 scale) (kochia (Bassia scoparia) [12]; Postemergence, 31 g ai/ha): 10; Kochia plant response rating (0 to 100 scale) (kochia (Bassia scoparia) [12]; [19]): 20; Pigweed plant response rating (0 to 100 scale) ([13]; Postemergence, 31 g ai/ha): 10; Pigweed plant response rating (0 to 100 scale) [13, 19]: 20; Ragweed plant response rating (0 to 100 scale) ([14]; Postemergence, 31 g ai/ha): 70; Ragweed plant response rating (0 to 100 scale) [14, 19]: 100; Wheat plant response rating (0 to 100 scale) ([15]; Postemergence, 31 g ai/ha): 0; Wheat plant response rating (0 to 100 scale) [15, 19]: 20; Plant response rating, Barnyardgrass (Flood) [16]: 0; Plant response rating, Ducksalad (Flood) [17]: 0; Plant response rating, Rice (Flood) (rice (Oryza sativa)): 0; Plant response rating, Sedge, Umbrella (Flood) [18]: 0
3 | C#CCO/N=C(\c1cccc(Br)c1)c1c(O)c(C)nn(C)c1=O [Compound 278] | 20 | 100 | 0 | 20 | 30 | 60 | 0 | 70 | 0 | 0 | 10 | 40 | 70 | 80 | 40 | 50 | 50 | 90 | 0 | 20 | Foxtail, Giant plant response rating (0 to 100 scale) ([10]; Postemergence, 31 g ai/ha): 30; Foxtail, Giant plant response rating (0 to 100 scale) [10, 19]: 70; Galium plant response rating (0 to 100 scale) ([11]; Postemergence, 31 g ai/ha): 80; Galium plant response rating (0 to 100 scale) [11, 19]: 90; Kochia plant response rating (0 to 100 scale) (kochia (Bassia scoparia) [12]; Postemergence, 31 g ai/ha): 40; Kochia plant response rating (0 to 100 scale) (kochia (Bassia scoparia) [12]; [19]): 80; Pigweed plant response rating (0 to 100 scale) ([13]; Postemergence, 31 g ai/ha): 30; Pigweed plant response rating (0 to 100 scale) [13, 19]: 70; Ragweed plant response rating (0 to 100 scale) ([14]; Postemergence, 31 g ai/ha): 60; Ragweed plant response rating (0 to 100 scale) [14, 19]: 80; Wheat plant response rating (0 to 100 scale) ([15]; Postemergence, 31 g ai/ha): 40; Wheat plant response rating (0 to 100 scale) [15, 19]: 80; Plant response rating, Barnyardgrass (Flood) [16]: 0; Plant response rating, Ducksalad (Flood) [17]: 0; Plant response rating, Rice (Flood) (rice (Oryza sativa)): 0; Plant response rating, Sedge, Umbrella (Flood) [18]: 0
4 | CON=C(c1cc(Cl)cc(Cl)c1F)c1c(O)c(C)nn(C)c1=O [Compound 299] | 100 | 100 | 90 | 100 | 100 | 100 | 90 | 100 | 100 | 100 | 90 | 100 | 100 | 100 | 70 | 90 | 80 | 80 | 10 | 30 | Foxtail, Giant plant response rating (0 to 100 scale) ([10]; Postemergence, 31 g ai/ha): 90; Foxtail, Giant plant response rating (0 to 100 scale) [10, 19]: 100; Galium plant response rating (0 to 100 scale) ([11]; Postemergence, 31 g ai/ha): 100; Galium plant response rating (0 to 100 scale) [11, 19]: 100; Kochia plant response rating (0 to 100 scale) (kochia (Bassia scoparia) [12]; Postemergence, 31 g ai/ha): 100; Kochia plant response rating (0 to 100 scale) (kochia (Bassia scoparia) [12]; [19]): 100; Pigweed plant response rating (0 to 100 scale) ([13]; Postemergence, 31 g ai/ha): 90; Pigweed plant response rating (0 to 100 scale) [13, 19]: 100; Ragweed plant response rating (0 to 100 scale) ([14]; Postemergence, 31 g ai/ha): 100; Ragweed plant response rating (0 to 100 scale) [14, 19]: 100; Wheat plant response rating (0 to 100 scale) ([15]; Postemergence, 31 g ai/ha): 30; Wheat plant response rating (0 to 100 scale) [15, 19]: 70; Plant response rating, Barnyardgrass (Flood) [16]: 85; Plant response rating, Ducksalad (Flood) [17]: 80; Plant response rating, Rice (Flood) (rice (Oryza sativa)): 45; Plant response rating, Sedge, Umbrella (Flood) [18]: 90
